The values below come from patent US7803801B2, “Aminopyridine compounds having Syk inhibitory activity” (Japan Tobacco, Inc., priority 2005, dated 2010).

The structures appear in SMILES notation. Structures can show the parent of a compound that is named as a salt.

The experiment concerns the target GST-Syk Full Protein (human) (Homo sapiens, UniProt P43405). The experiment can be described thus: Syk kinase inhibition test (HTRF method). In kind it is biochemical. The note with it: Tables 1-x, compounds A; read-out: sykHTRF ave IC50. On the procedure: Syk Kinase Inhibition Test (HTRF Method)
After the compounds were serially diluted with dimethylsulfoxide (DMSO), 10 μL of those 10-fold diluted with kinase buffer (20 mM HEPES pH 7.0, 10 mM MgCl2, 50 mM NaCl, 1 mM 2-ME, 0.05% BSA) was added to opti-plate HTRF-96 (Packard) (final DMSO concentration: 2%). 20 μL of a substrate solution (kinase buffer as mentioned above containing Syk Specific-Peptide Substrate Biot-EDPDYEWPSA-NH2 (Peptide Laboratory) 625 nM, 250 μM ATP (SIGMA) was added (final substrate concentration 250 nM, 100 μM ATP), and further 20 μL of an enzyme solution (kinase buffer as mentioned above containing GST-Syk Full Protein (human) 16 nM) (final concentration 6.4 nM) was added and the mixture was immediately stirred with a plate shaker to start enzyme reaction. After reacted at room temperature (20 to 25° C.) for 30 minutes, the enzyme reaction was terminated by adding 100 μL/well of a buffer for terminating and detecting the reaction (30 mM HEPES pH 7.0, 150 mM KF, 0.15% BSA, 0.075% Tween-20, 75 mM EDTA) containing HTRF reagent (5 μg/ml XL665-Streptavidin (CIS bio), 170 ng/ml Eu(K)-anti-PhosphoTyrosin, PT-66 (CIS bio)) (final concentration 20 mM HEPES pH 7.0, 100 mM KF, 0.1% BSA, 0.05% Tween-20, 50 mM EDTA). After allowed to stand still at room temperature for 1 hour, inhibitory effect of a compound against Syk kinase enzymatic activity was evaluated by measuring 665/620 fluorescence ratio to excitation light at 337 nm by ARVO (Wallac).
What is called IC50 is the point on the concentration scale where inhibition reaches its midpoint. Take `Cc1ccnc(Nc2cccc(-c3cnc(N4CCN(CC(=O)OC(C)(C)C)C(=O)C4)s3)n2)c1` [Compound A-463]: the IC50 lay within 100 to 1000 nM.

With `Cc1ccnc(Nc2cccc(-c3cnc(N4CCN(CC(=O)N(C)C)C(=O)C4)s3)n2)c1` [Compound A-467], the IC50 lay within 100 to 1000 nM.

`Cc1ccnc(Nc2cccc(-c3cnc(N4CCN(CC(=O)NCCO)C(=O)C4)s3)n2)c1` [Compound A-468, N-(2-hydroxyethyl)-2-(4-{5-[6-(4-methylpyridin-2-ylamino)pyridin-2-yl]thiazol-2-yl}-2-oxopiperazin-1-yl)acetamide]: the IC50 is less than 100 nM.

As for `COCC1CCCN(c2ncc(-c3cccc(Nc4cc(C)ccn4)n3)s2)C1` (centres unmarked) [Compound A-481, N-{6-[2-(3-methoxymethylpiperidin-1-yl)thiazol-5-yl]pyridin-2-yl}-N-(4-methylpyridin-2-yl)amine], the IC50 is less than 100 nM.

Consider `Cc1ccnc(Nc2cccc(-c3cnc(N4CCC(NS(C)(=O)=O)CC4)s3)n2)c1` [Compound A-484, N-(1-{5-[6-(4-methylpyridin-2-ylamino)pyridin-2-yl]thiazol-2-yl}piperidin-4-yl)methanesulfonamide], for which the IC50 is less than 100 nM.

For `Cc1ccnc(Nc2cccc(-c3cnc(N4CCC(N(C)S(C)(=O)=O)CC4)s3)n2)c1` [Compound A-485, N-methyl-N-(1-{5-[6-(4-methylpyridin-2-ylamino)pyridin-2-yl]thiazol-2-yl}piperidin-4-yl)methanesulfonamide], the IC50 is less than 100 nM.

Regarding `CNC(=O)C(C)(C)NC(=O)C1CCN(c2ncc(-c3cccc(Nc4cc(C)ccn4)n3)s2)CC1` [Compound A-491], the IC50 lay in the range of 100 to 1000 nM.

Take `CNC(=O)C1CCC(N(C)c2ncc(-c3cccc(Nc4cc(C)ccn4)n3)s2)CC1` (centres unmarked) [Compound A-492, N-methyl-4-(N′-methyl-N′-{5-[6-(4-methylpyridin-2-ylamino)pyridin-2-yl]thiazol-2-yl}amino)cyclohexanecarboxamide]: the IC50 was less than 100 nM.

Turning to `Cc1ccnc(Nc2cccc(-c3cnc(N(C)C4CCC(C(=O)NCCO)CC4)s3)n2)c1` (centres unmarked) [Compound A-493, N-(2-hydroxyethyl)-4(N′-methyl-N′-{5-[6-(4-methylpyridin-2-ylamino)pyridin-2-yl]thiazol-2-yl}amino)cyclohexanecarboxamide], the IC50 was less than 100 nM.

Regarding `CC(=O)NCCNC(=O)C1CCC(N(C)c2ncc(-c3cccc(Nc4cc(C)ccn4)n3)s2)CC1` (centres unmarked) [Compound A-494, N-(2-acetylaminoethyl)-4-(N′-methyl-N′-{5-[6-(4-methylpyridin-2-ylamino)pyridin-2-yl]thiazol-2-yl}amino)cyclohexanecarboxamide], the IC50 is less than 100 nM.

Consider `Cc1ccnc(Nc2cccc(-c3cnc(N(C)C4CCC(C(=O)N5CCC(O)CC5)CC4)s3)n2)c1` (centres unmarked) [Compound A-495], for which the IC50 lay within 100 to 1000 nM.

As to `Cc1ccnc(Nc2cccc(-c3cnc(N(C)C4CCC(C(=O)N[C@H]5CC[C@H](O)CC5)CC4)s3)n2)c1` (some centres unmarked) [Compound A-496], the IC50 lay in the range of 100 to 1000 nM.

For the compound `C=CCN(CC=C)c1ncc(-c2cccc(Nc3cc(C)ccn3)n2)s1` [Compound A-507, N,N-diallyl-N-{5-[6-(4-methylpyridin-2-ylamino)pyridin-2-yl]thiazol-2-yl}amine], the IC50 was less than 100 nM.

For `Cc1ccnc(Nc2cccc(-c3cnc(N(C)C4CCN(C(=O)N(C)C)CC4)s3)n2)c1` [Compound A-511, N,N-dimethyl-4-(N′-methyl-N′-{5-[6-(4-methylpyridin-2-ylamino)pyridin-2-yl]thiazol-2-yl}amino)piperidine-1-carboxamide], the IC50 is less than 100 nM.

As to `Cc1ccnc(Nc2cccc(-c3cnc(N(C)C4CCN(C(=O)C5CC5)CC4)s3)n2)c1` [Compound A-512], the IC50 was in the range of 100 to 1000 nM.

With `CC(=O)NCCN(c1ncc(-c2cccc(Nc3cc(C)ccn3)n2)s1)C1CCN(C(C)=O)CC1` [Compound A-521], the IC50 was 100 to 1000 nM.

On to `COC(=O)NCCN(c1ncc(-c2cccc(Nc3cc(C)ccn3)n2)s1)C1CCN(C(C)=O)CC1` [Compound A-522], for which the IC50 lay within 100 to 1000 nM.

Consider `CC(=O)N1CCC(N(CCNC(=O)N(C)C)c2ncc(-c3cccc(Nc4cc(C)ccn4)n3)s2)CC1` [Compound A-523], for which the IC50 was 100 to 1000 nM.

In the case of `Cc1ccnc(Nc2cccc(-c3cnc(N4CCC[C@H]4C(=O)O)s3)n2)c1` [Compound A-527], the half-inhibitory concentration (IC50) fell in the range of 100 to 1000 nM.

`CN(CCO)c1ncc(-c2cccc(Nc3cc(CC(=O)O)ccn3)n2)s1` [Compound A-550]: the IC50 is 100 to 1000 nM.

Turning to `Cc1ccnc(Nc2cccc(-c3cnc(N(C)CC(=O)O)s3)n2)c1` [Compound A-555], the half-maximal inhibitory concentration (IC50) fell in the range of 100 to 1000 nM.

`O=C(O)Cc1ccnc(Nc2cccc(-c3cnc(N4CC[C@@H](O)C4)s3)n2)c1` [Compound A-557]: the IC50 fell in the range of 100 to 1000 nM.

For `NC(=O)[C@@H]1CCCN1c1ncc(-c2cccc(Nc3cc(CC(=O)O)ccn3)n2)s1` [Compound A-559], the IC50 was in the range of 100 to 1000 nM.

Take `Cc1ccnc(Nc2cccc(-c3cnc(N4CCC[C@H]4C(=O)N[C@@H](C)C(=O)O)s3)n2)c1` [Compound A-566]: the IC50 was in the range of 100 to 1000 nM.

On to `Cc1ccnc(Nc2cccc(-c3cnc(N4C[C@H](O)C[C@H]4C(=O)O)s3)n2)c1` [Compound A-569], for which the IC50 lay in the range of 100 to 1000 nM.

With `COC(=O)c1cccc(CN(C)c2ncc(-c3cccc(Nc4cc(C)ccn4)n3)s2)c1` [Compound A-581], the half-maximal inhibitory concentration (IC50) lay within 100 to 1000 nM.

As to `COC(=O)N(CC(=O)O)Cc1ncc(-c2cccc(Nc3cc(C)ccn3)n2)s1` [Compound A-583], the IC50 fell in the range of 100 to 1000 nM.

`COC(=O)N(CCC(=O)O)Cc1ncc(-c2cccc(Nc3cc(C)ccn3)n2)s1` [Compound A-584]: the IC50 fell in the range of 100 to 1000 nM.

Regarding `COC(=O)N(CCCC(=O)O)Cc1ncc(-c2cccc(Nc3cc(C)ccn3)n2)s1` [Compound A-585], the IC50 lay within 100 to 1000 nM.

In the case of `Cc1ccnc(Nc2cccc(-c3cnc(N4CCC[C@@H](c5nnn[nH]5)C4)s3)n2)c1` [Compound A-590, N-(4-methylpyridin-2-yl)-N-(6-{2-[(R)-3-(1H-tetrazol-5-yl)piperidin-1-yl]thiazol-5-yl}pyridin-2-yl)amine], the IC50 is less than 100 nM.

`Cc1ccnc(Nc2cccc(-c3cnc(CN4CCc5c(cccc5C(=O)O)C4)s3)n2)c1` [Compound A-608]: the IC50 lay in the range of 100 to 1000 nM.

On to `Cc1ccnc(Nc2cccc(-c3cnc(COCC(=O)O)s3)n2)c1` [Compound A-615, {5-[6-(4-methylpyridin-2-ylamino)pyridin-2-yl]thiazol-2-ylmethoxy}acetic acid hydrochloride], for which the IC50 is less than 100 nM.

Regarding `Cc1ccnc(Nc2cccc(-c3cnc(N(C)c4ccc(/C=C/C(=O)O)cc4)s3)n2)c1` [Compound A-618], the IC50 lay in the range of 100 to 1000 nM.

For the compound `Cc1ccnc(Nc2cccc(-c3cnc(CSc4ccc(C(=O)O)cc4)s3)n2)c1` [Compound A-619], the half-inhibitory concentration (IC50) was 100 to 1000 nM.

With `Cc1ccnc(Nc2cccc(-c3cnc(N4CCCc5ccc(C(=O)O)cc54)s3)n2)c1` [Compound A-621], the IC50 was in the range of 100 to 1000 nM.

On to `Cc1ccnc(Nc2cccc(-c3cnc(N(Cc4ccccc4)C[C@H]4CC[C@H](C(=O)O)CC4)s3)n2)c1` [Compound A-622, trans-4-[(N-benzyl-N-{5-[6-(4-methylpyridin-2-ylamino)pyridin-2-yl]thiazol-2-yl}amino)methyl]cyclohexanecarboxylic acid], for which the IC50 is less than 100 nM.

Turning to `Cc1cc(C)nc(Nc2cccc(-c3cnc(N4CCC(CC(=O)O)CC4)s3)n2)c1` [Compound A-623], the IC50 lay in the range of 100 to 1000 nM.

On to `Cc1ccnc(Nc2cccc(-c3cnc(N(Cc4ccccc4)[C@H]4CC[C@H](CC(=O)O)CC4)s3)n2)c1` [Compound A-624, [trans-4-(N-benzyl-N-{5-[6-(4-methylpyridin-2-ylamino)pyridin-2-yl]thiazol-2-yl}amino)cyclohexyl]acetic acid], for which the IC50 was less than 100 nM.

Turning to `Cc1ccnc(Nc2cccc(-c3cnc(N(Cc4ccccc4)[C@H]4CC[C@@H](CC(=O)O)CC4)s3)n2)c1` [Compound A-625], the concentration for half-maximal inhibition (IC50) was 100 to 1000 nM.

`Cc1ccnc(Nc2cccc(-c3cnc(N(C[C@H]4CC[C@H](C(=O)O)CC4)C(C)C)s3)n2)c1` [Compound A-626, trans-4-[(N-isopropyl-N-{5-[6-(4-methylpyridin-2-ylamino)pyridin-2-yl]thiazol-2-yl}amino)methyl]cyclohexanecarboxylic acid]: the IC50 was less than 100 nM.

As to `Cc1ccnc(Nc2cccc(-c3cnc(N4CCCc5c(C(=O)O)cccc54)s3)n2)c1` [Compound A-627, 1-{5-[6-(4-methylpyridin-2-ylamino)pyridin-2-yl]thiazol-2-yl}-1,2,3,4-tetrahydroquinoline-5-carboxylic acid], the IC50 is less than 100 nM.

Consider `Cc1cccc(Nc2cccc(-c3cnc(N4CCC(CC(=O)O)CC4)s3)n2)n1` [Compound A-628], for which the IC50 lay within 100 to 1000 nM.

Turning to `Cc1ccc(Nc2cccc(-c3cnc(N4CCC(CC(=O)O)CC4)s3)n2)nc1` [Compound A-629], the IC50 was 100 to 1000 nM.

On to `Cc1cccnc1Nc1cccc(-c2cnc(N3CCC(CC(=O)O)CC3)s2)n1` [Compound A-630], for which the IC50 was 100 to 1000 nM.
